According to PMC5053523, “In Vitro Antibacterial Activity of Rhodanine Derivatives against Pathogenic Clinical Isolates” (PLoS ONE, 2016):
Like-named read-outs stand apart in the source and are kept apart here.

Tests used:
Bacillus Strains = assay: Broth microdilution MIC50/MIC90 and MIC range, Bacillus strains panel; assay type: cell-based, Bacillus spp.; conditions: 10 Bacillus strains
Description: The broth microdilution technique was used, followed by subculturing on agar plates that were rhodanine—free. […] The MICs reported represent the lowest concentration of each compound necessary to inhibit bacterial growth and the MBCs represent the lowest concentration required to reduce the initial bacterial inoculum by ≥ 99.9%.

Mycobacterium smegmatis = assay: Broth microdilution MIC/MBC, Mycobacterium smegmatis; assay type: cell-based; conditions: Mycolicibacterium smegmatis, ATCC14468, M. Smegmatis ATCC 14468; for MBC: read-out: MBC; for MIC: read-out: MIC
Acinetobacter baumannii = assay: MIC with/without sub-MIC colistin, Acinetobacter baumannii; assay type: cell-based
Procedure: (§1) The MIC of the rhodanines and control antibiotics, in the presence of a sub-inhibitory concentration of colistin or polymixin B nonapeptide (PMBN), against Gram-negative bacteria was evaluated as described before. The antibacterial activity of the rhodanines was further investigated against E. coli SM1411Δ acrAB, a strain that is deficient in the multidrug-resistant AcrAB efflux pump, as described before.

Escherichia coli O157:H7 [1] = assay: MIC with/without sub-MIC colistin, Escherichia coli O157:H7; assay type: cell-based
Procedure: as §1

Pseudomonas aeruginosa [2] = assay: MIC with/without sub-MIC colistin, Pseudomonas aeruginosa; assay type: cell-based
Procedure: as §1

Escherichia coli O157:H7 [3] = assay: MIC with/without PMBN, Escherichia coli O157:H7; assay type: cell-based
Procedure: as §1

Salmonella Typhimurium = assay: MIC with/without PMBN, Salmonella Typhimurium; assay type: cell-based
Procedure: as §1

Pseudomonas aeruginosa [4] = assay: MIC with/without PMBN, Pseudomonas aeruginosa; assay type: cell-based
Procedure: as §1

Escherichia coli Δ acrAB = assay: MIC against E. coli 1411 and AcrAB efflux pump deficient E. coli SM1411Δ acrAB; assay type: cell-based
Procedure: as §1

[5] = test system: methicillin-resistant Staphylococcus aureus (MRSA); assay: Broth microdilution MIC/MBC, MRSA; assay type: cell-based
[6] = test system: Vancomycin Resistant Staphylococcus aureus (VRSA); assay: Broth microdilution MIC/MBC, VRSA; assay type: cell-based; conditions: for MBC / MIC: VRSA
Clostridium difficile = assay: MIC against Clostridium difficile, anaerobic broth dilution; assay type: cell-based; conditions: Clostridioides difficile
Procedure: Clinical isolates of C. difficile were cultured on anaerobic blood agar and incubated anaerobically using container gas pack system at 37° C for 48 hours. The colonies were then suspended in pre-reduced phosphate buffered saline (PBS) and adjusted to 0.5 McFarland standard then diluted 1:300 in pre-reduced Supplemented Brain Heart Infusion broth. The bacterial suspension was then transferred to each well of 96-well plates, the drugs were added to the first row of wells in the required concentrations and serially diluted along the plates. The plates were incubated again anaerobically using container gas pack system at 37° C for 48 hours. The (MIC) recorded was the lowest concentration of the drug showing no visible growth of the bacteria.

K. pneumoniae = assay: Broth microdilution MIC, K. pneumoniae; assay type: cell-based
Candida albicans = assay: MIC against Candida albicans; assay type: cell-based; conditions: table prints none, read-out: MIC
[7] = Acinetobacter baumannii ATCC BAA747, colistin (+) […], read-out: MIC
[8] = Acinetobacter baumannii ATCC BAA19606, colistin (+) […], read-out: MIC
[9] = Acinetobacter baumannii, ATCCBAA747
[10] = Acinetobacter baumannii, ATCCBAA19606
[11] = Escherichia coli O157:H7 ATCC 35150, colistin (+) […], read-out: MIC
[12] = Escherichia coli O157:H7 ATCC 700728, colistin (+) […], read-out: MIC
[13] = Pseudomonas aeruginosa ATCC 921, colistin (+) […], read-out: MIC
[14] = Pseudomonas aeruginosa, ATCC921
[15] = Escherichia coli O157:H7 ATCC 35150, PMBN (+) 4 μg/mL, read-out: MIC
[16] = Escherichia coli O157:H7 ATCC 700728, PMBN (+) 4 μg/mL, read-out: MIC
[17] = Salmonella Typhimurium ATCC 700720, PMBN (+) 4 μg/mL, read-out: MIC
[18] = Salmonella enterica, ATCC 700720 / TYPHIMURIUM
[19] = Pseudomonas aeruginosa ATCC 9721, PMBN (+) 4 μg/mL, read-out: MIC
[20] = Pseudomonas aeruginosa, ATCC9721
[21] = E.coli 1411 SM (Δ acrAB, AcrAB efflux pump deficient)

CC(=O)NC[C@H]1CN(c2ccc(N3CCOCC3)c(F)c2)C(=O)O1 [Linezolid, linezolid, reference compound]
>64 µM: MIC (Acinetobacter baumannii; [7]) | MIC (Acinetobacter baumannii; [8])
4 µM: MIC (Mycobacterium smegmatis) | MIC (Escherichia coli O157:H7 [1]; [12])
>256 µM: MIC (Escherichia coli O157:H7 [3]; [15])
2 µM: MIC90 (Bacillus Strains)
64 µM: MIC (Pseudomonas aeruginosa [2]; [13]) | MIC (Salmonella Typhimurium; [17])
1 µM: MIC50 (Bacillus Strains)
8 µM: MBC (Mycobacterium smegmatis)
128 µM: MIC (Escherichia coli O157:H7 [3]; [16])
16 µM: MIC (Pseudomonas aeruginosa [4]; [19]) | MIC (Escherichia coli Δ acrAB; [21])
> 128 µM: MIC (Acinetobacter baumannii; [9]) | MIC (Acinetobacter baumannii; [10]) | MIC (Escherichia coli O157:H7 [1]; Escherichia coli, ATCC35150) | MIC (Escherichia coli O157:H7 [1]; Escherichia coli, ATCC700728) | MIC (Pseudomonas aeruginosa [2]; [14]) | MIC (Escherichia coli O157:H7 [3]; Escherichia coli, ATCC700728) | MIC (Salmonella Typhimurium; [18]) | MIC (Pseudomonas aeruginosa [4]; [20])
> 256 µM: MIC (Escherichia coli O157:H7 [3]; Escherichia coli, ATCC35150)
≤0.5 µM: MIC (Escherichia coli O157:H7 [1]; [11])
> 64 µM: MIC (Escherichia coli Δ acrAB; E.coli 1411)

O=C(O)[C@H](Cc1ccccc1)N1C(=O)/C(=C/c2cccc(Oc3ccc(Cl)c(Cl)c3)c2)SC1=S [Rh 1]
8 µM: MIC50 ([5]; 11 MRSA strains) | MIC90 ([5]; 11 MRSA strains) | MBC ([5]; MRSA NRS 1) | MIC ([5]; MRSA NRS 1) | MBC ([5]; MRSA NRS 19) | MIC ([5]; MRSA NRS 19) | MBC ([5]; MRSA NRS 37) | MIC ([5]; MRSA NRS 37) | MBC ([5]; MRSA NRS 107) | MIC ([5]; MRSA NRS 107) | MBC ([5]; MRSA NRS 119) | MIC ([5]; MRSA NRS 119) | MBC ([5]; MRSA NRS 382) | MIC ([5]; MRSA NRS 382) | MBC ([5]; MRSA NRS 383) | MIC ([5]; MRSA NRS 383) | MIC ([5]; MRSA NRS 384) | MBC ([5]; MRSA NRS 385) | MIC ([5]; MRSA NRS 385) | MIC ([5]; MRSA NRS 386) | MBC ([5]; MRSA NRS 387) | MIC ([5]; MRSA NRS 387) | MIC50 ([6]; 15 VRSA strains, read-out: MIC 50) | MIC90 ([6]; 15 VRSA strains, read-out: MIC 90) | MBC ([6]; VRSA 1, read-out: MBC) | MIC ([6]; VRSA 1, read-out: MIC) | MBC ([6]; VRSA 2, read-out: MBC) | MIC ([6]; VRSA 2, read-out: MIC) | MIC ([6]; VRSA 3a, read-out: MIC) | MBC ([6]; VRSA 3b, read-out: MBC) | MIC ([6]; VRSA 3b, read-out: MIC) | MBC ([6]; VRSA 4, read-out: MBC) | MIC ([6]; VRSA 4, read-out: MIC) | MIC ([6]; VRSA 5, read-out: MIC) | MBC ([6]; VRSA 6, read-out: MBC) | MBC ([6]; VRSA 7, read-out: MBC) | MIC ([6]; VRSA 7, read-out: MIC) | MIC ([6]; VRSA 9, read-out: MIC) | MIC ([6]; VRSA 10, read-out: MIC) | MIC ([6]; VRSA 11a, read-out: MIC) | MIC ([6]; VRSA 11b, read-out: MIC) | MIC ([6]; VRSA 12, read-out: MIC) | MIC ([6]; VRSA 13, read-out: MIC) | MBC (Mycobacterium smegmatis) | MIC (Escherichia coli O157:H7 [3]; [15])
>64 µM: MIC (Acinetobacter baumannii; [7]) | MIC (Acinetobacter baumannii; [8]) | MIC (Escherichia coli O157:H7 [1]; [11]) | MIC (Escherichia coli O157:H7 [1]; [12]) | MIC (Pseudomonas aeruginosa [2]; [13]) | MIC (Escherichia coli O157:H7 [3]; [16]) | MIC (Pseudomonas aeruginosa [4]; [19])
4 µM: MIC ([6]; VRSA 6, read-out: MIC) | MIC ([6]; VRSA 8, read-out: MIC) | MIC50 (Bacillus Strains) | MIC90 (Bacillus Strains) | MIC (Clostridium difficile; C. difficile HM-88) | MIC (Clostridium difficile; C. difficile HM-746) | MIC (Clostridium difficile; C. difficile Isolate-1 NR-13427) | MIC (Clostridium difficile; C. difficile Toxigenic Strain P8 NR-32888) | MIC (Mycobacterium smegmatis)
> 256 µM: MIC (Escherichia coli O157:H7 [3]; Escherichia coli, ATCC35150)
> 64 µM: MIC (Candida albicans; ATCC10231, C. albicans ATCC 10231, unit from abstract) | MIC (Candida albicans; C. albicans NR 29434, unit from abstract) | MIC (Candida albicans; C. albicans NR 29435, unit from abstract) | MIC (Candida albicans; C. albicans NR29437, unit from abstract) | MIC (Candida albicans; C. albicans NR29438, unit from abstract) | MIC (Candida albicans; C. albicans NR 29446, unit from abstract) | MIC (Candida albicans; C. albicans NR 29448, unit from abstract) | MIC (Candida albicans; C. albicans NR 29449, unit from abstract) | MIC (Candida albicans; C. albicans NR 29453, unit from abstract) | MIC (Candida albicans; C. albicans NR 294436, unit from abstract) | MIC (Escherichia coli Δ acrAB; E.coli 1411) | MIC (Escherichia coli Δ acrAB; [21])
>128 µM: MIC (K. pneumoniae; K. pneumoniae NR-15417) | MIC (Salmonella Typhimurium; [17])
32 µM: MBC ([5]; MRSA NRS 384) | MBC ([6]; VRSA 8, read-out: MBC) | MBC ([6]; VRSA 9, read-out: MBC) | MBC ([6]; VRSA 10, read-out: MBC) | MBC ([6]; VRSA 11b, read-out: MBC) | MBC ([6]; VRSA 12, read-out: MBC) | MBC ([6]; VRSA 13, read-out: MBC)
> 128 µM: MIC (K. pneumoniae; Klebsiella pneumoniae) | MIC (Acinetobacter baumannii; [9]) | MIC (Acinetobacter baumannii; [10]) | MIC (Escherichia coli O157:H7 [1]; Escherichia coli, ATCC35150) | MIC (Escherichia coli O157:H7 [1]; Escherichia coli, ATCC700728) | MIC (Pseudomonas aeruginosa [2]; [14]) | MIC (Escherichia coli O157:H7 [3]; Escherichia coli, ATCC700728) | MIC (Salmonella Typhimurium; [18]) | MIC (Pseudomonas aeruginosa [4]; [20])
16 µM: MBC ([5]; MRSA NRS 386) | MBC ([6]; VRSA 3a, read-out: MBC) | MBC ([6]; VRSA 5, read-out: MBC) | MBC ([6]; VRSA 11a, read-out: MBC)
2 µM: MIC (Clostridium difficile; C. difficile HM-745)
